From patent publication US20230286973A1, “PROTEIN SECRETION INHIBITORS” (KEZAR LIFE SCIENCES, priority 2020, published 2023) come the findings set out here.

Where two headings read alike, the source gives them in different places.

The nature of data set [1]: Liver Microsome Stability Assay (human). Particulars: human liver microsomes, with NADPH, 1.0 uM compound.
Experimental: (§1) Stability of a compound was assessed in the presence of liver microsomes from various sources—mouse, rat, monkey and human liver microsomes. 1.0 uM compound, 0.4% DMSO in 0.1 M Potassium Phosphate with 1.0 mg/mL liver microsomes, were incubated at 37° C. with or without 1 mM NADPH. The samples were quenched at 0, and 30 minutes.
A short description of data set [2]: Liver Microsome Stability Assay (monkey). Particulars: monkey liver microsomes, with NADPH, 1.0 uM compound.
Experimental: as §1
The nature of data set [3]: Liver Microsome Stability Assay (mouse). Particulars: mouse liver microsomes, with NADPH, 1.0 uM compound.
Experimental: as §1
Data set [4] deals with multiple myeloma cell line U266B1. Nature of the data set: U266 Cell Viability Assay. Particulars: Homo sapiens, U-266, 48 h, U266B1 cells, Celltiter-Glo. It counts as cell-based, human. In short, it runs like this:
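Viability is measured as luciferase signal from CellTiter-Glo following a 48-hour incubation with compound at 37° C. under 5% CO2. Where structures lack drawn stereochemistry, values refer to stereoisomer mixtures.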

The nature of data set [5]: Liver Microsome Stability Assay (rat). The conditions noted are these: rat liver microsomes, with NADPH, 1.0 uM compound.
Experimental: as §1
Data set [6] deals with TNFα-FL/Gaussia Luciferase. Nature of the data set: Dox Induced TNFα-FL-Gluc Assay. The conditions noted are these: for IC50: 24 hr Dox induction, 293FRT/TO cells, read-out: 24 hr Dox Inducible TNFaFLGluc 293FRT/TO: Mean IC50; for 24 hr Dox Inducible TNFaFLGluc 293FRT/TO: TNF/PD1: ratio of TNFaFLGluc IC50 to PD1ssGluc IC50. Type of data set: cell-based. In short, it runs like this:
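Doxycycline-inducible Gaussia luciferase-tagged full-length TNFα (1-233) was expressed in stable Flp-In 293 T-REx cells. Compounds were co-added with doxycycline and incubated at 37 °C, 5% CO2.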

The subject of data set [7] is IL-2-FL/Gaussia Luciferase. Nature of the data set: Dox Induced IL2-FL-Gluc Assay. It counts as cell-based. Particulars: for IC50: 24 hr Dox induction, 293FRT/TO cells, read-out: 24 hr Dox Inducible IL2FLGluc 293FRT/TO: Mean IC50; for 24 hr Dox Inducible IL2FLGluc 293FRT/TO: IL2/PD1: ratio of IL2FLGluc IC50 to PD1ssGluc IC50. In short, it runs like this:
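Doxycycline induces an IL-2(1-153)–Gaussia luciferase fusion in a stable Flp-In 293 T-REx line. Compound exposure runs alongside induction at 37° C.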

The subject of data set [8] is multiple myeloma cell line NCI-H929. Nature of the data set: H929 Cell Viability Assay. Type of data set: cell-based, human. Particulars: Homo sapiens, NCI-H929, 48 h, NCI-H929 cells, Celltiter-Glo. In short, it runs like this: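 Viability is scored by CellTiter-Glo luminescence following a 48-hour treatment at 37° C. Data for structures shown without stereochemistry refer to stereoisomer mixtures.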

In data set [9] the test system is PD1-ss+10aa/Gaussia Luciferase. Nature of the data set: Dox-Induced PD1-ss-Gluc Assay. Type of data set: cell-based. The conditions noted are these: 24 hr Dox induction, 293FRT/TO cells, read-out: 24 hr Dox Inducible PD1ssGluc 293FRT/TO: Mean IC50. In short, it runs like this:
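Stable Flp-In 293 T-REx cells carried a doxycycline-inducible construct of Gaussia luciferase fused to the PD1 signal sequence plus 10 amino acids. Cells were plated the day before, then treated with compound dilutions in DMSO/media containing doxycycline at 37 °C, 5% CO2.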

For data set [10], the system named is HER3-ss+4aa/Gaussia Luciferase. Nature of the data set: Dox-Induced Her3-ss-Gluc Assay. It counts as cell-based. Particulars: 24 hr Dox induction, 293FRT/TO cells, read-out: 24 hr Dox Inducible Her3(ss + 4)Gluc 293FRT/TO: Mean IC50. In short, it runs like this: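 Reporter line: Flp-In 293 T-REx, T-REx-regulated HER3-ss+4aa fused to Gaussia luciferase. Compound co-added with doxycycline after overnight plating, 37° C., 5% CO2.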

Where [11] appears, read: '<=>' given where both are I.A.

Turning to `O=C(Nc1nc(/C=C/c2ncn3c2CCCC3)cs1)c1cccn1Cc1ccnc(F)c1` [Compound B86, (E)-1-((2-fluoropyridin-4-yl)methyl)-N-(4-(2-(5,6,7,8-tetrahydroimidazo[1,5-a]pyridin-1-yl)vinyl)thiazol-2-yl)-1H-pyrrole-2-carboxamide], in data set [1], the “Liver Microsome Stability (Multiple Species): Human - % Remaining after 30 min w/NADPH” value amounted to 0.27%. In addition, the “Liver Microsome Stability (Multiple Species): Monkey - % Remaining after 30 min w/NADPH” value in data set [2] is reported as 0.11%. The “Liver Microsome Stability (Multiple Species): Mouse - % Remaining after 30 min w/NADPH” value in data set [3] amounted to 12.5%. Besides, the EC50 in data set [4] was 16.7 µM; in data set [8] it was 16.5 µM. The “Liver Microsome Stability (Multiple Species): Rat - % Remaining after 30 min w/NADPH” value in [5] was found to be 17%. Also, the IC50 in data set [6] was over 25 µM; in [7], over 25000 nM; in data set [9], 104 nM; in [10] it was 23200 nM. Further, in [6], the “24 hr Dox Inducible TNFaFLGluc 293FRT/TO: TNF/PD1” value is reported as over 239. Besides, in data set [7], the “24 hr Dox Inducible IL2FLGluc 293FRT/TO: IL2/PD1” value is given as over 240.
Take `O=C(Nc1nc(/C=C/c2c[nH]cn2)cs1)c1cccn1Cc1ccnc(F)c1` [Compound B114, (E)-N-(4-(2-(1H-imidazol-4-yl)vinyl)thiazol-2-yl)-1-((2-fluoropyridin-4-yl)methyl)-1H-pyrrole-2-carboxamide]: in data set [1], the “Liver Microsome Stability (Multiple Species): Human - % Remaining after 30 min w/NADPH” value came to 30.7%. In addition, the “Liver Microsome Stability (Multiple Species): Monkey - % Remaining after 30 min w/NADPH” value in data set [2] is listed as 43.4%. The “Liver Microsome Stability (Multiple Species): Mouse - % Remaining after 30 min w/NADPH” value in data set [3] is recorded as 59.3%. In addition, the half-maximal effective concentration (EC50) in data set [4] and in data set [8] was over 25 µM throughout. Moreover, the “Liver Microsome Stability (Multiple Species): Rat - % Remaining after 30 min w/NADPH” value in data set [5] is recorded as 27.3%. Further, the IC50 in data set [6] is over 25 µM; in data set [7] it was over 25000 nM; in [9] it was 5260 nM; in data set [10], over 25000 nM. In addition, the “24 hr Dox Inducible TNFaFLGluc 293FRT/TO: TNF/PD1” value in [6] is reported as over 4.76. The “24 hr Dox Inducible IL2FLGluc 293FRT/TO: IL2/PD1” value in [7] was over 4.8.
With `N#CCc1ccccc1Cn1cccc1C(=O)Nc1nc([C@H]2CCCN2c2ccccc2)cs1` [Compound C93, (R)-1-(2-(cyanomethyl)benzyl)-N-(4-(1-phenylpyrrolidin-2-yl)thiazol-2-yl)-1H-pyrrole-2-carboxamide], the “Liver Microsome Stability (Multiple Species): Human - % Remaining after 30 min w/NADPH” value in data set [1] turned out to be 3.12%. Further, in data set [2], the “Liver Microsome Stability (Multiple Species): Monkey - % Remaining after 30 min w/NADPH” value amounted to 6.79%. In data set [3], the “Liver Microsome Stability (Multiple Species): Mouse - % Remaining after 30 min w/NADPH” value came out at 16.3%. In addition, the EC50 in data set [4] and in [8] was over 25 µM each time. Moreover, the “Liver Microsome Stability (Multiple Species): Rat - % Remaining after 30 min w/NADPH” value in [5] came out at 1.23%. Moreover, the IC50 in data set [6] (mean) was over 25 µM; in [7] (mean) it was 1630 nM; in data set [9] (mean), 4270 nM; in data set [10] (mean), 1080 nM. The “24 hr Dox Inducible TNFaFLGluc 293FRT/TO: TNF/PD1” value in data set [6] (setting [11]) is over 5.86. Further, in data set [7] (setting [11]), the “24 hr Dox Inducible IL2FLGluc 293FRT/TO: IL2/PD1” value is recorded as 0.38.
On to `CC(=O)N1CCC(Oc2ccc(N3CCC[C@@H]3c3csc(NC(=O)c4cccn4Cc4ccnc(F)c4)n3)cc2)CC1` [Compound A62, (R)-N-(4-(1-(4-((1-acetylpiperidin-4-yl)oxy)phenyl)pyrrolidin-2-yl)thiazol-2-yl)-1-((2-fluoropyridin-4-yl)methyl)-1H-pyrrole-2-carboxamide], for which the “Liver Microsome Stability (Multiple Species): Human - % Remaining after 30 min w/NADPH” value in data set [1] was found to be 34.3%. Moreover, the “Liver Microsome Stability (Multiple Species): Monkey - % Remaining after 30 min w/NADPH” value in [2] was determined as 21.4%. Besides, in data set [3], the “Liver Microsome Stability (Multiple Species): Mouse - % Remaining after 30 min w/NADPH” value is reported as 52.7%. In addition, the EC50 in data set [4] is over 25 µM; in data set [8], 0.373 µM. In data set [5], the “Liver Microsome Stability (Multiple Species): Rat - % Remaining after 30 min w/NADPH” value was found to be 45.1%. In addition, the IC50 in [6] was 0.251 µM; in data set [7], 29.8 nM; in [9], 15 nM; in [10] it was 35.7 nM. In addition, in data set [6], the “24 hr Dox Inducible TNFaFLGluc 293FRT/TO: TNF/PD1” value is listed as 16.7. In addition, the “24 hr Dox Inducible IL2FLGluc 293FRT/TO: IL2/PD1” value in [7] came out at 2.
`Cc1ccc(N2CCC[C@@H]2c2csc(NC(=O)c3cccn3Cc3ccncc3)n2)nc1` [Compound E62, (R)-N-(4-(1-(5-methylpyridin-2-yl)pyrrolidin-2-yl)thiazol-2-yl)-1-(pyridin-4-ylmethyl)-1H-pyrrole-2-carboxamide]: the “Liver Microsome Stability (Multiple Species): Human - % Remaining after 30 min w/NADPH” value in data set [1] is 0.69%. The “Liver Microsome Stability (Multiple Species): Monkey - % Remaining after 30 min w/NADPH” value in data set [2] amounted to 0.19%. The “Liver Microsome Stability (Multiple Species): Mouse - % Remaining after 30 min w/NADPH” value in data set [3] amounted to 1.51%. Besides, the EC50 was over 25 µM in [4] and 0.126 µM in [8]. Moreover, in [5], the “Liver Microsome Stability (Multiple Species): Rat - % Remaining after 30 min w/NADPH” value came to 15.4%. Further, the IC50 turned out to be 0.043 µM in data set [6] (mean), 9.89 nM in data set [7] (mean), 2.94 nM in [9] (mean) and 8.52 nM in data set [10] (mean). Moreover, the “24 hr Dox Inducible TNFaFLGluc 293FRT/TO: TNF/PD1” value in data set [6] (setting [11]) is 14.6. Besides, the “24 hr Dox Inducible IL2FLGluc 293FRT/TO: IL2/PD1” value in data set [7] (setting [11]) stood at 3.4.
For the compound `Cc1c(/C=C/c2csc(NC(=O)c3cccn3Cc3ccnc(F)c3)n2)ncn1C(C)C` [Compound B116, (E)-1-((2-fluoropyridin-4-yl)methyl)-N-(4-(2-(1-isopropyl-5-methyl-1H-imidazol-4-yl)vinyl)thiazol-2-yl)-1H-pyrrole-2-carboxamide], in [1], the “Liver Microsome Stability (Multiple Species): Human - % Remaining after 30 min w/NADPH” value is 0.16%. In addition, the “Liver Microsome Stability (Multiple Species): Monkey - % Remaining after 30 min w/NADPH” value in [2] is 0.16%. Further, in [3], the “Liver Microsome Stability (Multiple Species): Mouse - % Remaining after 30 min w/NADPH” value was found to be 11.3%. Moreover, the EC50 in [4] was 9.48 µM; in data set [8], 8.45 µM. Also, in data set [5], the “Liver Microsome Stability (Multiple Species): Rat - % Remaining after 30 min w/NADPH” value is 8.66%. Also, the IC50 in data set [6] (mean) turned out to be 18.8 µM; in [7] (mean), 5270 nM; in data set [9] (mean) it was 10.5 nM; in data set [10] (mean), 3690 nM. The “24 hr Dox Inducible TNFaFLGluc 293FRT/TO: TNF/PD1” value in data set [6] (setting [11]) turned out to be 1780. Besides, the “24 hr Dox Inducible IL2FLGluc 293FRT/TO: IL2/PD1” value in data set [7] (setting [11]) is listed as 500.
In the case of `COCCn1cnc(/C=C/c2csc(NC(=O)c3cccn3Cc3ccncc3)n2)c1` [Compound B56, (E)-N-(4-(2-(1-(2-methoxyethyl)-1H-imidazol-4-yl)vinyl)thiazol-2-yl)-1-(pyridin-4-ylmethyl)-1H-pyrrole-2-carboxamide], in data set [1], the “Liver Microsome Stability (Multiple Species): Human - % Remaining after 30 min w/NADPH” value came out at 0.46%. Moreover, the “Liver Microsome Stability (Multiple Species): Monkey - % Remaining after 30 min w/NADPH” value in [2] was 0.27%. Moreover, the “Liver Microsome Stability (Multiple Species): Mouse - % Remaining after 30 min w/NADPH” value in [3] is 1.72%. The EC50 in data set [4] and in data set [8] was over 25 µM throughout. Further, the “Liver Microsome Stability (Multiple Species): Rat - % Remaining after 30 min w/NADPH” value in [5] is 0.57%. Moreover, the IC50 is over 25 µM in data set [6], over 25000 nM in [7], 520 nM in [9] and over 25000 nM in [10]. Further, in data set [6], the “24 hr Dox Inducible TNFaFLGluc 293FRT/TO: TNF/PD1” value is given as over 48.0. In addition, the “24 hr Dox Inducible IL2FLGluc 293FRT/TO: IL2/PD1” value in data set [7] is over 48.
